The series has as its system HaloEnzyme-GFP-expressing HeLa cell line. The series is described as follows: Chloroalkane Penetration Assay (CAPA), cytosolic access. The series is classed as cell-based. The source says: FIG. 1A provides a schematic showing the experimental procedure of CAPA, which uses a HaloEnzyme-GFP-expressing HeLa cell line. […] For CAPA, cells are pre-treated with vehicle or peptide, washed, and chased with HTag-TAMRA. Cells treated with cell-penetrant molecules have had their HaloEnzyme blocked, thus preventing the HTag-TAMRA from covalently labeling the cells. In this schematic, the molecule of interest is a peptide.
FIG. 1C provides a graph showing the dose-dependent response curve of HTag-TAMRA signal after pre-incubation with different concentrations of HTag-cTMP, HTag-DD5o, and the negatively charged, linear variant HTag-DD5-neg. Data was normalized using the values obtained for vehicle (0% HTag-TAMRA signal inhibition) and for vehicle with no HTag-TAMRA added (100% signal inhibition). Points are means from three independent experiments and error bars show standard deviation.
The CAPA method uses a cell line that stably expresses a cytosolically-oriented protein as a fusion with GFP and Haloenzyme. Haloenzyme is a modified bacterial chloroalkane dehalogenase that covalently labels itself with the small, otherwise inert Haloligand functional group. If an exogenously added molecule bearing the Haloligand (a small chloroalkane) reaches the cytosol, it reacts exclusively with the Haloenzyme and blocks its active site. Following this incubation period, the amount of unreacted Haloenzyme was measured by chasing with a Haloligand-bearing dye (here, Htag-TAMRA). The relative amount of red cellular fluorescence after this chase was then quantified by flow cytometry. The red signal reported directly on the amount of free Haloenzyme, which is inversely proportional to the degree to which the added molecule accessed the cytoplasm during the incubation period.
Halo-GFP-Mitochondrial targeted (Mito.)+mCherry-dihydrofolate reductase (DHFR) HeLa cells were obtained from the Chenoweth Lab as described by (Ballister et al., Nat. Commun. 2014. 5, 1-9), which is incorporated herein by reference. The expression vector used for the incorporation of GFP-Haloenzyme is shown at FIG. 3. Cells were cultured using DMEM+10% FBS+1% Pen/Strep+1 μg/mL puromycin. For experiments, cells were seeded in a 24-well plate the day before at 1.0×10^5 cells/well. Materials for cell culture were purchased from Thermo Scientific.
Cells were rinsed 1× with PBS, then treated with peptides in acidified Opti-MEM (0.15% 6N HCl) for 4 hours. Media was aspirated and cells were washed for 30 min with phenol red-free DMEM+10% FBS+1% pen/strep. Cells were chased with 5 μM HTag-TAMRA (Promega) in phenol red-free DMEM+10% FBS+1% pen/strep for 30 min. Cells were washed for 15 min with phenol red-free DMEM+10% FBS+1% pen/strep. Cells were rinsed once with phosphate buffered saline (PBS), then trypsinized and transferred to 1.5 mL Eppendorf tubes. Cells were pelleted and washed twice with PBS. Cell pellet was resuspended in 250 μL of PBS and 200 μL were transferred to 96-well plate for flow cytometry analysis. Data was gated for live cells measuring 10,000 cells per sample. Mean fluorescence intensity was obtained in the Yellow channel for HTag-TAMRA, and data was normalized. Background yellow fluorescence was observed both by flow cytometry and microscopy due to the constituent expression of mCherry-DHFR, but the signal observed for HTag-TAMRA-treated cells was 10-fold higher than background.

Where [1] appears, read: 50 μM inhibitor for 1 hr, then biomolecule 4 hr at 37° C., FIG. 5D.

Molecules are shown by their SMILES.

With `N=C(N)NCCC[C@H](NC(=O)[C@H](CCCNC(=N)N)NC(=O)[C@H](CCCNC(=N)N)NC(=O)[C@H](CCCNC(=N)N)NC(=O)[C@H](CCCNC(=N)N)NC(=O)[C@H](CCCNC(=N)N)NC(=O)[C@H](CCCNC(=N)N)NC(=O)[C@H](CCCNC(=N)N)NC(=O)[C@H](CCCNC(=N)N)NC(=O)CCC(=O)NCCOCCOCCCCCCCl)C(N)=O` [Arg9], the “cytosolic penetration at 37° C. versus 4° C.” value was “significantly greater at 37 °C compared to 4 °C”. Further, the “effect of EIPA on cytosolic penetration” value under setting [1] was “no significant reduction in cytosolic penetration”.
On to `N[C@@H](Cc1c[nH]c2ccccc12)C(=O)O` [Trp], for which, under setting [1], the “effect of EIPA on cytosolic penetration” value is recorded as “no significant reduction in cytosolic penetration” and the “effect of chlorpromazine on cytosolic penetration” value is on record as “no effect”. Moreover, the “time course of cytosolic penetration” value (FIG. 5A) was “time-dependent cytosolic penetration”.

Values taken from patent publication US10620214B2, “Chloroalkane penetration method for quantifying access of a molecule into a cell” (TRUSTEES OF TUFTS COLLEGE, priority 2016, dated 2020).
